According to patent US4555504A, “Inclusion complex of β-cyclodextrin and digoxin” (Burroughs Wellcome Co., priority 1981, dated 1985):
Values after ≈ are worked out from the molar mass of the structure shown.

How the values were obtained:
[1] = Comparative solubility of complexed and non-complexed cardiac glycosides in deionised water; assay type: physicochemical; details: shaken about 8 hours, ambient temperature, HPLC
From the text: The resultant mixture was filtered through a filter paper (Whatman No. 2) and then through a membrane filter (0.02 um, Millipore), the filtrate diluted 100 fold with deionised water and the solution thus obtained assayed for cardiac glycoside in a conventional manner using high performance liquid chromatography.

[2] = Comparative dissolution of complexed and non-complexed digoxin (B.P. rotating basket); assay type: physicochemical; details: B.P. 1980 rotating basket, deionised water (1 liter), 37° C., HPLC
Method: The dissolution rate of complexed (1:3 complex, Example 1) and non-complexed digoxin was determined in the British Pharmacopoeia rotating basket apparatus (B.P., 1980). The dissolution medium was deionised water (1 liter) at 37° C. A scoop containing sample (about […] of digoxin or about […] of digoxin/B-cyclodextrin complex) was added to the dissolution medium and allowed to settle to the base of the vessel. Samples (2 ml) were taken at intervals up to 60 minutes via a volumetric pippette and assayed by high performance liquid chromatography to determine cumulative percentage release of drug.

[3] = background statement; cited from earlier work

## C[C@H]1O[C@@H](O[C@H]2[C@@H](O)C[C@H](O[C@H]3[C@@H](O)C[C@H](O[C@H]4CC[C@@]5(C)[C@H](CC[C@@H]6[C@@H]5C[C@@H](O)[C@]5(C)[C@@H](C7=CC(=O)OC7)CC[C@]65O)C4)O[C@@H]3C)O[C@@H]2C)C[C@H](O)[C@@H]1O [Digoxin, digoxin]
[1]
  solubility at 8 h: 46 µg/mL (≈ 58.9 µM)
[1]; read-out: Solubility, Non-complexed (percent)
  solubility thermodynamic at 8 h: 46 µg/mL (≈ 58.9 µM)
[2]
  T80 (time for 80% release): > 60 min
[3]
  solubility of digoxin in water: ~0.005%
